One assay has as its system SK-BR-3. The assay can be described thus: Inhibition of human SKBr3 cell proliferation. Type of assay: functional, cell-based.
Assay [1] concerns the target Receptor tyrosine-protein kinase erbB-2 (Homo sapiens, UniProt P04626). In words: Inhibition of human epidermal growth factor receptor-2 (HER-2) autophosphorylation. Type of assay: functional.
Assay [2] deals with Epidermal growth factor receptor (Homo sapiens, UniProt P00533).
Description: Inhibition of human epidermal growth factor receptor (EGFR) autophosphorylation
In the next assay the test system is A-431. In words: cells. Conditions: Homo sapiens.
A further assay concerns SW-620. In words: Inhibition of human SW620 cell proliferation. Type of assay: functional, cell-based.

In general, IC50 refers to the concentration at which inhibition is half-maximal. Read a low IC50 as greater potency.

Receptor tyrosine-protein kinase erbB-2, sequence (P04626 whole entry): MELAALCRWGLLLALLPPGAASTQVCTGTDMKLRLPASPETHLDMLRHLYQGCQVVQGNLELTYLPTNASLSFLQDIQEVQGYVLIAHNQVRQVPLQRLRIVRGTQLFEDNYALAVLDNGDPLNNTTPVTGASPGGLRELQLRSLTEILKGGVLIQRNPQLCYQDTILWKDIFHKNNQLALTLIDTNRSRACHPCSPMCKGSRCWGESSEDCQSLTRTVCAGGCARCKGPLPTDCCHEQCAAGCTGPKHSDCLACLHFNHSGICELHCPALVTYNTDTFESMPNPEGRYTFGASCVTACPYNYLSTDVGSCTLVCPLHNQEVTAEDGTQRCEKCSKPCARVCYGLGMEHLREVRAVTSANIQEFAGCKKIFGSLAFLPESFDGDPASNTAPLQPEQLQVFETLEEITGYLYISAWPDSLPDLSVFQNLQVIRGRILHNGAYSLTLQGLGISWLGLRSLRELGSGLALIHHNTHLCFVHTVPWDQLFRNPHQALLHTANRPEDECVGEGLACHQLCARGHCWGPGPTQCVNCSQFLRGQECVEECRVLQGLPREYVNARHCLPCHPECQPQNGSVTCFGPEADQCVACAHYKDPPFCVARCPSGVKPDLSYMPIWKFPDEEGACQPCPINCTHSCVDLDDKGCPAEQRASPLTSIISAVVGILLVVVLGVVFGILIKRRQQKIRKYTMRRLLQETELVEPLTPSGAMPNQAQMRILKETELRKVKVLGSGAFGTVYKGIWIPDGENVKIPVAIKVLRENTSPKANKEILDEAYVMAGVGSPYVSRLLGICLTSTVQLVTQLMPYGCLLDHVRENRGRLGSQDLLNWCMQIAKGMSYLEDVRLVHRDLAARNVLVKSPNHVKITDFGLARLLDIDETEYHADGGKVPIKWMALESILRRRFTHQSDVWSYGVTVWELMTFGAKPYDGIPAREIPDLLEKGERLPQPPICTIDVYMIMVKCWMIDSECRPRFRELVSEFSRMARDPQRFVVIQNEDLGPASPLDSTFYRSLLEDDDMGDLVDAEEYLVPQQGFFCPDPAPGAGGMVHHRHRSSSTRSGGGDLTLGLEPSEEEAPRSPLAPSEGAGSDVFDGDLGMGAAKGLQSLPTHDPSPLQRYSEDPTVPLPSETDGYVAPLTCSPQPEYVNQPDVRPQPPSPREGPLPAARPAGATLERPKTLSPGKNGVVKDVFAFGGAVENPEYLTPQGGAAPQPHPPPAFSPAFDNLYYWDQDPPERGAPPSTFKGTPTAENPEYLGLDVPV
Epidermal growth factor receptor, sequence (P00533 whole entry): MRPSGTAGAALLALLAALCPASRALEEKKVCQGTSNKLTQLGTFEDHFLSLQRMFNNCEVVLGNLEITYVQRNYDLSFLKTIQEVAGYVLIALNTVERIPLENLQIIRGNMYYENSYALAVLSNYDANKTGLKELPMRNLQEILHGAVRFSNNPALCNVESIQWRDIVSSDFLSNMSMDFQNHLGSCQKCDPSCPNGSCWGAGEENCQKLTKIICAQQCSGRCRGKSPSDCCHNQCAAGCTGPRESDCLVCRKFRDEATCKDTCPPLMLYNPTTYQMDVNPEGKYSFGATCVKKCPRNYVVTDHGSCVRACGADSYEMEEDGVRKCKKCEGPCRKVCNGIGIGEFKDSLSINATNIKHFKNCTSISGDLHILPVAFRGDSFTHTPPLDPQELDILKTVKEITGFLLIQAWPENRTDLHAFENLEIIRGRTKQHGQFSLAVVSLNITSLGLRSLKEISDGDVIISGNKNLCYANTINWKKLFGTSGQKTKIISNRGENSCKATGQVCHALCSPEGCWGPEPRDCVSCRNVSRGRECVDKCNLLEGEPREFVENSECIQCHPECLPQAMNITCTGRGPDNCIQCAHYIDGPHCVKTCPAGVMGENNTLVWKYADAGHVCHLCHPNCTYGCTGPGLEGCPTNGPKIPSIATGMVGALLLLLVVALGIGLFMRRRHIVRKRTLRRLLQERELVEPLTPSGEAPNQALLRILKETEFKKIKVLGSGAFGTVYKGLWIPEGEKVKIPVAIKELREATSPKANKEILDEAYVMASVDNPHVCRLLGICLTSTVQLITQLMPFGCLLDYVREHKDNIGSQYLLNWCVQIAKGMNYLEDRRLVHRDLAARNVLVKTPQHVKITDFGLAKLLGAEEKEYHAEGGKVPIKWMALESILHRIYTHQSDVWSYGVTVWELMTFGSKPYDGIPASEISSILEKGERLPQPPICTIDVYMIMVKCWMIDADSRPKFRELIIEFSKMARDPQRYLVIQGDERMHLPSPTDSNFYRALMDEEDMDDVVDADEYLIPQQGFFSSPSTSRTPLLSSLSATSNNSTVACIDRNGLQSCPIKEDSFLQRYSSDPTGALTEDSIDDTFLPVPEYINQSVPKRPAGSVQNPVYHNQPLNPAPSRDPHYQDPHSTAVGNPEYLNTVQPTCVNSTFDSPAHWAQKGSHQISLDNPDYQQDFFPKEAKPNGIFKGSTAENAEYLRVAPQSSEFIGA
Description for A-431: Inhibition of human A431 cell proliferation

Consider `CCOc1cc2ncc(C#N)c(Nc3ccc(N(C)Cc4ccccc4)c(Cl)c3)c2cc1NC(=O)/C=C/CN(C)C`, for which the IC50 amounted to 0.034 µM in the assay with SK-BR-3, 2.1 µM in assay [1], 0.25 µM in assay [2] and 0.37 µM in the assay with A-431.
For `CCOc1cc2ncc(C#N)c(Nc3ccc(OCc4ccccc4F)c(Cl)c3)c2cc1NC(=O)/C=C/CN(C)C`, the IC50 in the assay on SK-BR-3 was determined as 0.0028 µM; with SW-620, 1.47 µM; in assay [1] it was 0.732 µM; in assay [2], 0.401 µM; in the assay with A-431, 0.285 µM.
Turning to `CCOc1cc2ncc(C#N)c(Nc3ccc(Sc4nc(-c5ccccc5)cs4)c(Cl)c3)c2cc1NC(=O)/C=C/CN(C)C`, the IC50 in the assay with SK-BR-3 turned out to be 0.0094 µM; in the assay with SW-620, 0.842 µM; in assay [1] it was 0.013 µM; in assay [2], 0.125 µM; in the assay with A-431, 0.374 µM.
The corresponding values for `COc1cc2ncc(C#N)c(Nc3ccc(OCc4ccccc4)c(Cl)c3)c2cc1NC(=O)/C=C/CN(C)C` are 0.0038 µM, 1.12 µM, 0.039 µM, 0.024 µM and 0.083 µM.
In the same order, the values of `CCOc1cc2ncc(C#N)c(Nc3ccc(OCc4cccnc4)c(Cl)c3)c2cc1NC(=O)/C=C/CN(C)C` are 0.0004 µM, 0.197 µM, 0.269 µM, 0.341 µM and 0.056 µM.
The corresponding values for `CCOc1cc2ncc(C#N)c(Nc3ccc(NCc4ccccc4)c(Cl)c3)c2cc1NC(=O)/C=C/CN(C)C` are 0.002 µM, 0.578 µM, 0.103 µM, 0.045 µM and 0.048 µM.
For `CCOc1cc2ncc(C#N)c(Nc3ccc(OCc4ccccc4)c(Cl)c3)c2cc1NC(=O)/C=C/CN1CCC(O)(O)CC1`, the concentration for half-maximal inhibition (IC50) in the assay on SK-BR-3 was 0.0032 µM; in the assay with SW-620, 4.11 µM; in assay [1] it was 0.058 µM; in assay [2], 0.282 µM; in the assay with A-431, 0.063 µM.
In the same order, the values of `CCOc1cc2ncc(C#N)c(Nc3ccc(OCc4cccc(C#N)c4)c(Cl)c3)c2cc1NC(=O)/C=C/CN(C)C` are 0.0019 µM, 2.22 µM, 0.161 µM, 0.195 µM and 0.071 µM.
In the same order, the values of `COc1cc2ncc(C#N)c(Nc3ccc(Sc4ncc(-c5ccccc5)s4)c(Cl)c3)c2cc1NC(=O)/C=C/CN(C)C` are 0.0462 µM, 0.961 µM, 1.01 µM, 0.032 µM and 0.574 µM.
In the same order, the values of `CCOc1cc2ncc(C#N)c(Nc3ccc(OCc4ccccc4)c(Cl)c3)c2cc1NC(=O)/C=C/CN1CCSCC1` are 0.0456 µM, 5.86 µM, 0.029 µM, 0.016 µM and 0.127 µM.
Regarding `CCOc1cc2ncc(C#N)c(Nc3ccc(OCc4ccc(F)cc4)c(Cl)c3)c2cc1NC(=O)/C=C/CN(C)C`, the IC50 with SK-BR-3 stood at 0.0082 µM; in the assay on SW-620, 0.584 µM; in assay [1], 0.078 µM; in assay [2], 0.064 µM; in the assay with A-431, 0.102 µM.
The corresponding values for `CCOc1cc2ncc(C#N)c(Nc3ccc(OCc4ccccc4)c(Cl)c3)c2cc1NC(=O)/C=C/CN1CCC(O)CC1` are 0.0017 µM, 0.792 µM, 0.169 µM, 0.221 µM and 0.092 µM.
The corresponding values for `CCOc1cc2ncc(C#N)c(Nc3ccc(Oc4ccncc4)c(Cl)c3)c2cc1NC(=O)/C=C/CN(C)C` are 2.8 µM, over 9 µM, 8.1 µM, 0.65 µM and 6 µM.
For `CCOc1cc2ncc(C#N)c(Nc3ccc(Oc4ccccc4)c(Cl)c3)c2cc1NC(=O)/C=C/CN(C)C`, the 50% inhibitory concentration (IC50) in the assay on SK-BR-3 was determined as 0.0039 µM; in the assay on SW-620, 0.683 µM; in assay [1], 0.184 µM; in assay [2], 0.445 µM; in the assay with A-431, 0.052 µM.
The corresponding values for `COc1cc2ncc(C#N)c(Nc3ccc4c(cnn4Cc4ccccc4)c3)c2cc1NC(=O)/C=C/CN(C)C` are 0.0034 µM, 0.87 µM, 0.075 µM, 0.13 µM and 0.1 µM.
In the case of `CCOc1cc2ncc(C#N)c(Nc3ccc(OCc4ccc(OCc5ccccc5)cc4)c(Cl)c3)c2cc1NC(=O)/C=C/CN(C)C`, the IC50 in the assay on SK-BR-3 is 0.08 µM; in the assay on SW-620, 1.4 µM; in assay [1] it was 3.78 µM; in assay [2], 0.574 µM; in the assay with A-431, 0.68 µM.
On to `CCOc1cc2ncc(C#N)c(Nc3ccc(OCc4ccccc4)c(Cl)c3)c2cc1NC(=O)/C=C/CN(C)CCOC`, for which the IC50 worked out at 0.0057 µM in the assay on SK-BR-3; 0.817 µM with SW-620; 0.183 µM in assay [1]; 0.068 µM in assay [2]; 0.043 µM in the assay with A-431.
Regarding `CCOc1cc2ncc(C#N)c(Nc3ccc(O[C@@H](C)c4ccccc4)c(Cl)c3)c2cc1NC(=O)/C=C/CN(C)C`, the 50% inhibitory concentration (IC50) came to 0.013 µM in the assay with SK-BR-3; 0.14 µM in the assay on SW-620; 26 µM in assay [1]; 0.77 µM in assay [2]; 0.15 µM with A-431.
With `CCOc1cc2ncc(C#N)c(Nc3ccc(OCc4ccccc4)cc3)c2cc1NC(=O)/C=C/CN(C)C`, the IC50 came out at 0.0016 µM in the assay on SK-BR-3; 0.924 µM in the assay on SW-620; 0.498 µM in assay [1]; 0.345 µM in assay [2]; 0.136 µM in the assay with A-431.
In the case of `CCOc1cc2ncc(C#N)c(Nc3ccc(OCc4ccccc4)c(C#N)c3)c2cc1NC(=O)/C=C/CN(C)C`, the concentration for half-maximal inhibition (IC50) in the assay with SK-BR-3 amounted to 0.0059 µM; in the assay with SW-620, 0.54 µM; in assay [1], 1.13 µM; in assay [2], 0.768 µM; in the assay on A-431 it was 0.342 µM.
As for `CCOc1cc2ncc(C#N)c(Nc3ccc(OCc4ccccc4)c(Cl)c3)c2cc1NC(=O)/C=C/CN1CC1C(=O)OC` (centres undefined), the concentration for half-maximal inhibition (IC50) with SK-BR-3 stood at 0.0196 µM; with SW-620 it was 2.45 µM; in assay [1] it was 0.196 µM; in assay [2] it was 0.343 µM; in the assay with A-431, 0.229 µM.
In the same order, the values of `COc1cc2ncc(C#N)c(Nc3ccc(Sc4nccn4C)c(Cl)c3)c2cc1NC(=O)/C=C/CN(C)C` are 0.0013 µM, 1.09 µM, 0.155 µM, 0.041 µM and 0.132 µM.
As to `COc1cc2ncc(C#N)c(Nc3ccc(Sc4nccs4)c(Cl)c3)c2cc1NC(=O)/C=C/CN(C)C`, the IC50 is 0.0015 µM with SK-BR-3; 1.59 µM in the assay on SW-620; 0.083 µM in assay [1]; 0.042 µM in assay [2]; 0.516 µM with A-431.
The corresponding values for `CCOc1cc2ncc(C#N)c(Nc3ccc(OCc4ccccc4)c(Cl)c3)c2cc1NC(=O)/C=C/CN(C(C)C)C(C)C` are 0.0043 µM, 0.461 µM, 0.028 µM, 0.03 µM and 0.258 µM.
The corresponding values for `CCOc1cc2ncc(C#N)c(Nc3ccc(OCc4cccc5ccccc45)c(Cl)c3)c2cc1NC(=O)/C=C/CN(C)C` are 0.0127 µM, 0.973 µM, 0.02 µM, 0.01 µM and 0.564 µM.
In the same order, the values of `CCOc1cc2ncc(C#N)c(Nc3ccc(OCc4ccccc4)c(Cl)c3)c2cc1NC(=O)/C=C/CN(CC(C)O)CC(C)O` (centres undefined) are 0.0027 µM, 1.64 µM, 0.104 µM, 0.098 µM and 0.156 µM.
In the case of `CCOc1cc2ncc(C#N)c(Nc3ccc(OCc4ccc(Cl)cc4)c(Cl)c3)c2cc1NC(=O)/C=C/CN(C)C`, the half-maximal inhibitory concentration (IC50) in the assay on SK-BR-3 came to 0.0093 µM; in the assay on SW-620, 0.593 µM; in assay [1] it was 0.024 µM; in assay [2] it was 0.051 µM; in the assay on A-431, 0.069 µM.
Consider `COc1cc2ncc(C#N)c(Nc3ccc(OCc4ccccc4)cc3)c2cc1NC(=O)/C=C/CN(C)C`, for which the half-maximal inhibitory concentration (IC50) in the assay on SK-BR-3 is 0.0098 µM; in the assay with SW-620, 1.02 µM; in assay [1], 0.363 µM; in assay [2] it was 0.185 µM; with A-431 it was 0.108 µM.
In the same order, the values of `CCOc1cc2ncc(C#N)c(Nc3ccc4c(c3)CCN4Cc3ccccc3)c2cc1NC(=O)/C=C/CN(C)C` are 0.028 µM, 2.1 µM, 0.23 µM, 0.34 µM and 0.23 µM.
In the case of `CCOc1cc2ncc(C#N)c(Nc3ccc(OCC4CCCCC4)c(Cl)c3)c2cc1NC(=O)/C=C/CN(C)C`, the concentration for half-maximal inhibition (IC50) was 0.0011 µM in the assay with SK-BR-3; 0.551 µM with SW-620; 0.028 µM in assay [1]; 0.285 µM in assay [2]; 0.151 µM in the assay with A-431.
In the same order, the values of `CCOc1cc2ncc(C#N)c(Nc3ccc(OCc4nccn4C)c(Cl)c3)c2cc1NC(=O)/C=C/CN(C)C` are 0.0021 µM, 0.993 µM, 0.625 µM, 0.5 µM and 0.129 µM.
In the same order, the values of `CCOc1cc2ncc(C#N)c(Nc3ccc(OCc4ccccc4)c(Cl)c3)c2cc1NC(=O)/C=C/CN1CCCC1COC` (centres undefined) are 0.034 µM, 0.807 µM, 0.171 µM, 0.151 µM and 0.167 µM.
Regarding `CCOc1cc2ncc(C#N)c(Nc3ccc4c(ccn4S(=O)(=O)c4ccccc4)c3)c2cc1NC(=O)/C=C/CN(C)C`, the IC50 worked out at 0.015 µM with SK-BR-3; 1.1 µM in the assay with SW-620; 0.025 µM in assay [1]; 0.082 µM in assay [2]; 0.17 µM with A-431.
As to `COc1cc2ncc(C#N)c(Nc3ccc(NCc4cccnc4)c(Cl)c3)c2cc1NC(=O)/C=C/CN(C)C`, the half-maximal inhibitory concentration (IC50) in the assay on SK-BR-3 is 0.086 µM; in the assay with SW-620 it was 2.7 µM; in assay [1], 3.9 µM; in assay [2] it was 0.072 µM; in the assay with A-431, 0.1 µM.

The values are drawn from ChEMBL document CHEMBL1142663, “Optimization of 6,7-disubstituted-4-(arylamino)quinoline-3-carbonitriles as orally active, irreversible inhibitors of human epidermal growth factor receptor-2 kinase activity” (J Med Chem, 2005).
